Test results taken from publication PMC4965013, “Open Source Drug Discovery with the Malaria Box Compound Collection for Neglected Diseases and Beyond” (PLoS Pathogens, 2016).
Like-named read-outs stand apart in the source and are kept apart here. Each block holds one compound with its values, some of them ahead of it.

Experiments:
[1] = test system: P. falciparum 3D7 trophozoites; assay: Metabolomic fingerprint profiling LC-MS; type: cell-based, Plasmodium falciparum; set-up: UDP-D-glucose / ADP-D-glucose: unit not given here; conditions: for Acetyllysine / N-acetyl-L-ornithine / N-carbamoyl-L-aspartate / NADPH / dAMP / dCMP / dTDP / dTMP / dTTP / dihydroorotate / orotate / DLH / DLS/SDL/SID / PD / PEE / PVNF / 3-phosphoglycerate / ADP-D-glucose / ATP / CDP / D-sedoheptulose-1/7-phosphate / FAD / GMP / NAD+ / NADP+ / Octoluse Bisphosphate / Pyroglutamic acid / UDP-D-glucose / UDP-D-glucuronate / UDP-N-acetyl-glucosamine / UDP / UMP / UTP / a-ketoglutarate / citrate/isocitrate / cytidine / dATP / dGMP/AMP / fumarate / glucose-1/6-phosphate / glycerate / guanine / guanosine / hypoxanthine / indole / inosine / nicotinate / ornithine / phosphoenolpyruvate / pyruvate / ribose-phosphate / sarcosine/alanine / sn-glycerol-3-phosphate / succinate/methylmalonic acid / uridine / xanthosine: S2 Table Metabolomics; for Acetyllysine: metabolite Acetyllysine; for N-acetyl-L-ornithine: metabolite N-acetyl-L-ornithine; for N-carbamoyl-L-aspartate: metabolite N-carbamoyl-L-aspartate; for NADPH: metabolite NADPH; for dAMP: metabolite dAMP; for dCMP: metabolite dCMP; for dTDP: metabolite dTDP; for dTMP: metabolite dTMP; for dTTP: metabolite dTTP; for dihydroorotate: metabolite dihydroorotate; for orotate: metabolite orotate; for DLH: peptide DLH; for DLS/SDL/SID: peptide DLS/SDL/SID; for PD: peptide PD; for PEE: peptide PEE; for PVNF: peptide PVNF; for 3-phosphoglycerate: metabolite 3-phosphoglycerate; for ADP-D-glucose: metabolite ADP-D-glucose; for ATP: metabolite ATP; for CDP: metabolite CDP; for CDP / D-sedoheptulose-1/7-phosphate / GMP / Octoluse Bisphosphate / UDP / UMP / UTP / citrate/isocitrate / dGMP/AMP / fumarate / glucose-1/6-phosphate / glycerate / guanine / guanosine / inosine / pyruvate / sarcosine/alanine / succinate/methylmalonic acid / uridine / xanthosine: change in metabolite level after compound treatment; for D-sedoheptulose-1/7-phosphate: metabolite D-sedoheptulose-1/7-phosphate; for FAD: metabolite FAD; for GMP: metabolite GMP; for NAD+: metabolite NAD+; for NADP+: metabolite NADP+; for Octoluse Bisphosphate: metabolite Octoluse Bisphosphate; for Pyroglutamic acid: metabolite Pyroglutamic acid; for UDP-D-glucose: metabolite UDP-D-glucose; for UDP-D-glucuronate: metabolite UDP-D-glucuronate; for UDP-N-acetyl-glucosamine: metabolite UDP-N-acetyl-glucosamine; for UDP: metabolite UDP; for UMP: metabolite UMP; for UTP: metabolite UTP; for a-ketoglutarate: metabolite a-ketoglutarate; for citrate/isocitrate: metabolite citrate/isocitrate; for cytidine: metabolite cytidine; for dATP: metabolite dATP; for dGMP/AMP: metabolite dGMP/AMP; for fumarate: metabolite fumarate; for glucose-1/6-phosphate: metabolite glucose-1/6-phosphate; for glycerate: metabolite glycerate; for guanine: metabolite guanine; for guanosine: metabolite guanosine; for hypoxanthine: metabolite hypoxanthine; for indole: metabolite indole; for inosine: metabolite inosine; for 2_3-Diphosphoglyceric acid / 4-phosphopantothenate / 6-phospho-D-gluconate / FMN / IMP / Pyrophosphate / Sedoheptoluse bisphosphate / cyclic-AMP / glutathione disulfide / lactate / myo-inositol: metabolite level change after treatment; for nicotinate: metabolite nicotinate; for ornithine: metabolite ornithine; for phosphoenolpyruvate: metabolite phosphoenolpyruvate; for pyruvate: metabolite pyruvate; for ribose-phosphate: metabolite ribose-phosphate; for sarcosine/alanine: metabolite sarcosine/alanine; for sn-glycerol-3-phosphate: metabolite sn-glycerol-3-phosphate; for succinate/methylmalonic acid: metabolite succinate/methylmalonic acid; for uridine: metabolite uridine; for xanthosine: metabolite xanthosine
[2] = test system: bovine Babesia and equine Babesia and Theileria parasites; assay: Babesia and Theileria fluorescence-based assay, all four species; type: cell-based, B. bovis, B. bigemina, T. equi, B. caballi
[3] = test system: P. falciparum; assay: EC50 listed in S2 Table Metabolomics (used to set the concentration tested); type: cell-based; conditions: Plasmodium falciparum, read-out: EC50_nM

anti-Babesia and anti-Theileria hits, IC50 in words [2]: nanomolar IC50s
SMILES: COc1ccccc1N=C1C(=O)c2ccccc2C(O)=C1N1CCCCC1 [MMV085203]
Acetyllysine [1]: 0.5338
N-acetyl-L-ornithine [1]: 0.417
N-carbamoyl-L-aspartate [1]: -0.03953
NADPH [1]: 1.905
dAMP [1]: 0.2134
dCMP [1]: -0.3018
dTDP [1]: 0.1555
dTMP [1]: 0.3091
dTTP [1]: 0.09879
dihydroorotate [1]: -0.4435
orotate [1]: -0.006229
DLH [1]: 0.05618
DLS/SDL/SID [1]: 0.215
PD [1]: -0.1394
PEE [1]: 0.002208
PVNF [1]: 0.05104
3-phosphoglycerate [1]: 0.03547
ADP-D-glucose [1]: -0.1308
ATP [1]: 0.1374
CDP [1]: 0.2087
D-sedoheptulose-1/7-phosphate [1]: 0.1847
FAD [1]: -0.04298
GMP [1]: 0.06518
NAD+ [1]: -0.0924
NADP+ [1]: 0.08883
Octoluse Bisphosphate [1]: 0.05889
Pyroglutamic acid [1]: 0.3327
UDP-D-glucose [1]: 0.02335
UDP-D-glucuronate [1]: 0.1307
UDP-N-acetyl-glucosamine [1]: -0.006531
UDP [1]: 0.1215
UMP [1]: -0.1092
UTP [1]: 0.1112
a-ketoglutarate [1]: 0.6853
citrate/isocitrate [1]: 0.6482
cytidine [1]: -0.04401
dATP [1]: 0.1251
dGMP/AMP [1]: 0.1681
fumarate [1]: 0.1969
glucose-1/6-phosphate [1]: -0.1808
glycerate [1]: 0.6274
guanine [1]: 0.2252
guanosine [1]: 0.5678
hypoxanthine [1]: 0.8131
indole [1]: 0.6437
inosine [1]: 0.2953
2_3-Diphosphoglyceric acid [1]: 0.04377
4-phosphopantothenate [1]: 0.03169
6-phospho-D-gluconate [1]: 0.09424
FMN [1]: -0.0513
IMP [1]: 0.06497
Pyrophosphate [1]: -0.1041
Sedoheptoluse bisphosphate [1]: 0.1294
cyclic-AMP [1]: 0.1643
glutathione disulfide [1]: -0.1576
lactate [1]: 0.4496
myo-inositol [1]: 0.5579
nicotinate [1]: 0.3875
ornithine [1]: 0.05264
phosphoenolpyruvate [1]: 0.005153
pyruvate [1]: 1.4601
ribose-phosphate [1]: 1.0837
sarcosine/alanine [1]: 0.0342
sn-glycerol-3-phosphate [1]: -0.8649
succinate/methylmalonic acid [1]: 0.5863
uridine [1]: 0.4561
xanthosine [1]: 0.5245

SMILES: C[n+]1c2ccccc2nc2ccc(NCCO)cc21 [MMV396693]
Acetyllysine [1]: -0.1505
N-acetyl-L-ornithine [1]: -0.01449
N-carbamoyl-L-aspartate [1]: 0.2036
NADPH [1]: 1.101
dAMP [1]: 0.3768
dCMP [1]: -0.245
dTDP [1]: -0.2826
dTMP [1]: -0.3704
dTTP [1]: 0.008069
dihydroorotate [1]: 0.3914
orotate [1]: -0.3502
DLH [1]: 0.01259
DLS/SDL/SID [1]: 0.07661
PD [1]: 0.009709
PEE [1]: -0.05476
PVNF [1]: 0.1478
3-phosphoglycerate [1]: 0.5809
ADP-D-glucose [1]: 0.23
ATP [1]: 0.04335
CDP [1]: -0.06362
D-sedoheptulose-1/7-phosphate [1]: -0.05616
FAD [1]: 0.2669
GMP [1]: 0.08605
NAD+ [1]: 0.2129
NADP+ [1]: 0.2138
Octoluse Bisphosphate [1]: 0.3676
Pyroglutamic acid [1]: 0.1161
UDP-D-glucose [1]: 0.1757
UDP-D-glucuronate [1]: 0.2718
UDP-N-acetyl-glucosamine [1]: 0.1832
UDP [1]: -0.3369
UMP [1]: -0.448
UTP [1]: 0.03764
a-ketoglutarate [1]: -0.1814
citrate/isocitrate [1]: 1.401
cytidine [1]: 0.9119
dATP [1]: 0.0739
dGMP/AMP [1]: 0.007618
fumarate [1]: 0.1883
glucose-1/6-phosphate [1]: -0.01569
glycerate [1]: 0.2787
guanine [1]: 0.244
guanosine [1]: 0.1378
hypoxanthine [1]: 0.1496
indole [1]: 0.3367
inosine [1]: 0.5603
2_3-Diphosphoglyceric acid [1]: 0.305
4-phosphopantothenate [1]: 0.02035
6-phospho-D-gluconate [1]: 0.201
FMN [1]: 0.1776
IMP [1]: 0.1162
Pyrophosphate [1]: 0.4038
Sedoheptoluse bisphosphate [1]: 0.06738
cyclic-AMP [1]: 0.09405
glutathione disulfide [1]: 0.1827
lactate [1]: 0.3349
myo-inositol [1]: -0.009161
nicotinate [1]: 0.1527
ornithine [1]: 0.2843
phosphoenolpyruvate [1]: 0.01034
pyruvate [1]: -0.1004
ribose-phosphate [1]: 0.7027
sarcosine/alanine [1]: 0.6024
sn-glycerol-3-phosphate [1]: 0.3061
succinate/methylmalonic acid [1]: 0.6812
uridine [1]: 0.1028
xanthosine [1]: 0.2966
anti-Babesia and anti-Theileria hits, IC50 in words [2]: nanomolar IC50s
mean selectivity indices (SI) [2]: greater than 230
IC50 ([2]; Babesia, read-out: IC50s for both bovine Babesia and equine Babesia and Theileria parasites): 43 to 750 nM
EC50 [3]: 296 nM

anti-Babesia and anti-Theileria hits, IC50 in words [2]: nanomolar IC50s
EC50 ([3]; EC50 used for Factor_XEC50 in metabolomics): 255 nM
SMILES: CN(C)c1ccc(C(O)(c2ccc(N(C)C)cc2)c2ccc(N(C)C)cc2)cc1 [MMV665941]
Acetyllysine [1]: -1.017
N-acetyl-L-ornithine [1]: -0.7597
N-carbamoyl-L-aspartate [1]: -0.9197
NADPH [1]: 0.7329
dAMP [1]: -0.1528
dCMP [1]: -0.8045
dTDP [1]: -0.3693
dTMP [1]: -0.3724
dTTP [1]: 0.2892
dihydroorotate [1]: -0.7761
orotate [1]: -0.6971
DLH [1]: -0.3436
DLS/SDL/SID [1]: -0.7858
PD [1]: -0.9616
PEE [1]: -0.896
PVNF [1]: -0.9967
3-phosphoglycerate [1]: -0.2513
ADP-D-glucose [1]: -0.2022
ATP [1]: -0.1582
CDP [1]: -0.3781
D-sedoheptulose-1/7-phosphate [1]: -0.2425
FAD [1]: -0.1824
GMP [1]: -1.314
NAD+ [1]: -0.1192
NADP+ [1]: 0.08054
Octoluse Bisphosphate [1]: -0.4622
Pyroglutamic acid [1]: -0.1275
UDP-D-glucose [1]: -0.08523
UDP-D-glucuronate [1]: -0.09688
UDP-N-acetyl-glucosamine [1]: -0.3177
UDP [1]: -0.7488
UMP [1]: -1.259
UTP [1]: -0.2947
a-ketoglutarate [1]: -0.5688
citrate/isocitrate [1]: -0.2269
cytidine [1]: 0.5361
dATP [1]: 0.2904
dGMP/AMP [1]: -0.7364
fumarate [1]: -0.9732
glucose-1/6-phosphate [1]: -0.5386
glycerate [1]: -0.5934
guanine [1]: -0.3347
guanosine [1]: -0.8332
hypoxanthine [1]: -0.2046
indole [1]: -0.2792
inosine [1]: -0.51
2_3-Diphosphoglyceric acid [1]: -0.09061
4-phosphopantothenate [1]: -0.6586
6-phospho-D-gluconate [1]: -0.08067
FMN [1]: 0.05461
IMP [1]: -0.2283
Pyrophosphate [1]: -0.1004
Sedoheptoluse bisphosphate [1]: -0.2916
cyclic-AMP [1]: 0.03248
glutathione disulfide [1]: -0.3448
lactate [1]: -0.6265
myo-inositol [1]: -1.035
nicotinate [1]: 0.06813
ornithine [1]: -0.116
phosphoenolpyruvate [1]: -0.1381
pyruvate [1]: -0.3661
ribose-phosphate [1]: -0.3246
sarcosine/alanine [1]: -0.4581
sn-glycerol-3-phosphate [1]: -0.06155
succinate/methylmalonic acid [1]: -1.567
uridine [1]: -0.4322
xanthosine [1]: -0.131
